Experimental data taken from PubChem BioAssay (NCI).
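Cells were grown in 96-well plates and exposed to each compound for 48 hours at five concentrations; endpoints were interpolated linearly between bracketing concentrations, or set to the highest concentration if not reached. TGI marks complete inhibition of growth.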

Columns and labels:
Assay in all cases: NCI-60 cell line screen, 48 h
[1] = test system: OVCAR-3 ovarian
[2] = test system: SK-MEL-5 melanoma
[3] = test system: MDA-MB-435
[4] = test system: RXF 393 renal
[5] = test system: MCF7 breast
[6] = test system: CAKI-1 renal
[7] = test system: M14 melanoma
[8] = test system: SNB-19 CNS
[9] = test system: HT29 colon
[10] = test system: NCI-H522 lung
[11] = test system: EKVX NSCLC
[12] = test system: SF-539 CNS
[13] = test system: SR leukemia
[14] = test system: IGROV1 ovarian
[15] = test system: ACHN renal
[16] = test system: MDA-N
[17] = test system: A498 renal
[18] = test system: MOLT-4 leukemia
[19] = test system: SK-MEL-28 melanoma
[20] = test system: PC-3 prostate
[21] = test system: SK-OV-3 ovarian
[22] = test system: COLO 205 colon
[23] = test system: HS 578T breast
[24] = test system: MDA-MB-231 breast
[25] = test system: OVCAR-8 ovarian
[26] = test system: HCT-15 colon
[27] = test system: SF-268 CNS
[28] = test system: U251 CNS
[29] = test system: T-47D breast
[30] = test system: NCI-H460 lung
[31] = test system: SW-620 colon
[32] = test system: CCRF-CEM leukemia
[33] = test system: MALME-3M melanoma
[34] = test system: OVCAR-5 ovarian
[35] = test system: KM12 colon
[36] = test system: 786-0 renal
[37] = test system: OVCAR-4 ovarian
[38] = test system: HCC-2998 colon
[39] = test system: SK-MEL-2 melanoma
[40] = test system: SF-295 CNS
[41] = test system: K-562 leukemia
[42] = test system: A549 NSCLC
[43] = test system: LOX IMVI melanoma
[44] = test system: DU-145 prostate
[45] = test system: SN12C renal
[46] = test system: HOP-62 NSCLC
[47] = test system: HCT-116 colon
[48] = test system: NCI-H226 lung
[49] = test system: NCI/ADR-RES ovarian
[50] = test system: SNB-75 CNS
[51] = test system: UACC-257 melanoma
[52] = test system: UO-31 renal
[53] = test system: HL-60(TB) leukemia
[54] = test system: UACC-62 melanoma
[55] = test system: TK-10 renal
[56] = test system: RPMI-8226 leukemia
[57] = test system: NCI-H23 lung
[58] = test system: HOP-92 NSCLC

Work on O=C(Nc1ccc(Cl)cc1)c1cc2c(cc1Cl)Sc1nccn1S2(=O)=O yielded a TGI [1] greater than 100 µM, a TGI [2] greater than 100 µM and a TGI [3] greater than 100 µM. It also gave a TGI [4] greater than 100 µM, a TGI [5] greater than 100 µM and a TGI [6] greater than 100 µM. For the same compound, the TGI [7] was greater than 100 µM, the TGI [8] was greater than 100 µM and the TGI [9] was greater than 100 µM. The TGI [10] was greater than 100 µM, the TGI [11] was greater than 100 µM and the TGI [12] was greater than 100 µM. The TGI [13] was greater than 100 µM, the TGI [14] was greater than 100 µM and the TGI [15] was greater than 100 µM. For the same compound, the TGI [16] was greater than 100 µM, the TGI [17] was greater than 100 µM and the TGI [18] was greater than 100 µM. It also gave a TGI [19] greater than 100 µM, a TGI [20] greater than 100 µM and a TGI [21] greater than 100 µM. For the same compound, the TGI [22] was greater than 100 µM, the TGI [23] was 97.4 µM and the TGI [24] was greater than 100 µM. It also gave a TGI [25] greater than 100 µM, a TGI [26] greater than 100 µM and a TGI [27] greater than 100 µM. The TGI [28] was 39.6 µM, the TGI [29] was greater than 100 µM and the TGI [30] was greater than 100 µM. It also gave a TGI [31] greater than 100 µM, a TGI [32] greater than 100 µM and a TGI [33] greater than 100 µM. It also gave a TGI [34] greater than 100 µM, a TGI [35] greater than 100 µM and a TGI [36] greater than 100 µM. It also gave a TGI [37] greater than 100 µM, a TGI [38] greater than 100 µM and a TGI [39] greater than 100 µM. It also gave a TGI [40] greater than 100 µM, a TGI [41] greater than 100 µM and a TGI [42] greater than 100 µM. For the same compound, the TGI [43] was greater than 100 µM, the TGI [44] was greater than 100 µM and the TGI [45] was greater than 100 µM. It also gave a TGI [46] greater than 100 µM, a TGI [47] greater than 100 µM and a TGI [48] greater than 100 µM. For the same compound, the TGI [49] was greater than 100 µM and the TGI [50] was 25.2 µM.
CC1=C2C(=O)c3ccccc3C(=O)[C@H]2C[C@@H](N2CCCC2=O)O1 was tested, and the TGI [51] was greater than 100 µM, the TGI [1] was 63.9 µM and the TGI [2] was 32.7 µM. The TGI [3] was 33.1 µM, the TGI [4] was 45.3 µM and the TGI [5] was 29.9 µM. The TGI [6] was greater than 100 µM, the TGI [7] was 34.9 µM and the TGI [8] was greater than 100 µM. The TGI [9] was greater than 100 µM, the TGI [10] was greater than 100 µM and the TGI [11] was greater than 100 µM. For the same compound, the TGI [12] was 49.1 µM, the TGI [13] was 87.7 µM and the TGI [14] was greater than 100 µM. It also gave a TGI [15] greater than 100 µM, a TGI [16] of 30 µM and a TGI [52] greater than 100 µM. It also gave a TGI [17] greater than 100 µM, a TGI [18] greater than 100 µM and a TGI [19] greater than 100 µM. The TGI [20] was greater than 100 µM, the TGI [21] was greater than 100 µM and the TGI [22] was greater than 100 µM. For the same compound, the TGI [23] was greater than 100 µM, the TGI [53] was greater than 100 µM and the TGI [24] was greater than 100 µM. For the same compound, the TGI [25] was greater than 100 µM, the TGI [26] was greater than 100 µM and the TGI [27] was greater than 100 µM. For the same compound, the TGI [28] was 76.4 µM, the TGI [54] was greater than 100 µM and the TGI [55] was greater than 100 µM. For the same compound, the TGI [29] was 53.5 µM, the TGI [30] was greater than 100 µM and the TGI [31] was 66.9 µM. For the same compound, the TGI [32] was 81.8 µM, the TGI [33] was 31.8 µM and the TGI [34] was 42.5 µM. The TGI [35] was greater than 100 µM, the TGI [36] was 65.5 µM and the TGI [56] was 49.5 µM. It also gave a TGI [57] of 57.1 µM, a TGI [37] of 38.2 µM and a TGI [38] greater than 100 µM. For the same compound, the TGI [39] was greater than 100 µM, the TGI [58] was 61.7 µM and the TGI [40] was greater than 100 µM. It also gave a TGI [41] greater than 100 µM, a TGI [42] greater than 100 µM and a TGI [43] of 37.8 µM. The TGI [44] was 54.7 µM, the TGI [45] was greater than 100 µM and the TGI [46] was greater than 100 µM. For the same compound, the TGI [49] was 97 µM and the TGI [50] was 61 µM.
